Several values for one entry are separate records, joined by “and”; a condition that tells them apart may be missing. Identical values can stand only once. Like-named read-outs stand apart in the source and are kept apart here. One block for each compound: values may come before it.
Key:
[1] = tested on: premenopausal women with uterine leiomyomata; assay: Uterine size (uterine volume calculated from ultrasound dimensions), Example 2; format: in vivo, human
Experimental: (§1) A 12 week study was performed to establish an effective dose of deslorelin for controlling heavy bleeding secondary to uterine leiomyomata. Forty-one women completed the study and are identified as Subject Nos. 1-41. The women were divided into test groups for treatment with intranasal deslorelin as follows:
(§2) An intranasal preparation consisting of deslorelin at the indicated concentration along with sorbitol (61.6 mg/mL), benzalkonium chloride (0.1 mg/mL), and water was prepared according to the procedure of Example 1. The preparation was administered with a commercially available nasal sprayer that delivered a 50 μL spray volume. The preparation was administered by application of 50 μL to each nostril once per day, for a total daily spray volume of 100 μL to give the indicated dose of deslorelin.
(§3) The average age of the premenopausal patients was 42.3, with similar distribution among groups. For one complete menstrual cycle prior to treatment, each woman completed a daily bleeding calendar. Eligible subjects were then treated with deslorelin at the assigned dosage once per day by intranasal application. During the 12 weeks of daily intranasal administration, each woman kept a daily bleeding calendar, completed quality of life questionnaires, and underwent clinical assessment and laboratory testing. The subjects were tracked for 6 weeks post-treatment for further assessment and to document time to recovery of menses after last drug treatment day. Clinical assessments included grading of nasal irritation (Table 3A), determination of uterine size (Table 3B), and serum hormone levels (Table 3C).

[2] = tested on: heavy bleeding secondary to uterine leiomyomata; assay: Bleeding score from daily bleeding calendar (sum of 28 day diary entries; 0 no bleeding, 5 normal flow, 10 or greater menorrhagia), Example 2; format: in vivo, human
Experimental: as §1, §2, §3

[3] = tested on: ovarian suppression (serum estradiol and progesterone levels); format: in vivo, human; settings: for Hormone Levels: Progesterone: daily, individual subjects
Experimental: Example 4 describes a study performed in support of the invention where the nasal preparation is similar to that of Example 1, comprised of a GnRH compound, estradiol, and testosterone, was administered to healthy, premenopausal women. Three doses of the GnRH compound deslorelin were tested, 0.5 mg, 1.0 mg, and 2.0 mg. The nasal preparation was administered using a conventional metered nasal spray delivery device. The subjects received two 50 μL sprays, one in each nostril, daily for four weeks. Blood samples were collected prior to drug administration on day 1 of the study, and then at regular intervals throughout day 1. Thereafter, blood samples were collected weekly, until day 29, when blood was collected at scheduled intervals throughout the day. Serum deslorelin, estradiol, testosterone, and progesterone were quantified, and the results are shown in Tables 4A through 4C, below in Example 4.
Nine premenopausal women, ages 20 to 45 years, were recruited and randomly divided into three test groups for a 29 day study. […] The single intranasal administration consisted of a 100 μL dose delivered using a metered nasal spray device as two 50 μL sprays, one in each nostril.
An indwelling intravenous catheter was inserted in an arm vein for withdrawal of blood samples prior to drug administration and at defined intervals post administration (study day 1) of 40, 120, 240, and 480 minutes. Thereafter, weekly blood samples (study days 8, 15, and 22) were collected for determination of serum estradiol, progesterone, testosterone, and deslorelin levels. On study day 29 post administration, blood samples were drawn according to the same regimen on study day 1. After collection, all blood samples were allowed to clot at room temperature, then refrigerated. Within 24 hours of collection, serum was separated and stored frozen at −5° C. until assayed.
Serum levels of estradiol, testosterone, and progesterone were quantitated by sensitive and specific radioimmunoassay methods (Stanczyk, F. Z. et al., Am. J Obstet. Gynecol., 159(6):1540 (1988); Scott et al., Am. J Obstet. Gynecol., 130(7):817 (1978)). Prior to assay of the steroid hormones, serum was extracted with ethyl acetate:hexane (1:1) and for the testosterone assay further purified via Celite™ column chromatography, with 40% toluene to elute the testosterone. Procedural losses were followed by addition of 1000 dpm of the appropriate tritiated internal standard. The sensitivities of the estradiol, testosterone, and progesterone assays were 8 pg/mL, 4 ng/dL, and 10 ng/dL, respectively. […] Intra- and inter-assay coefficients of variation were 5% to 10% and 10% to 15%, respectively. Specificity of the assays was enhanced by eliminating interfering metabolites with extraction and/or chromatography and through the use of highly specific antisera.

[4] = tested on: ovarian estrogen and progesterone production; assay: Serum hormone levels, 12 week intranasal deslorelin study (Example 2); format: in vivo, human
Experimental: Testosterone levels are also similar.
as §1, §2, §3

[5] = cited from earlier work
[6] = 0.5 mg/day intranasal, Baseline
[7] = 0.5 mg/day intranasal, End of Week 4
[8] = 0.5 mg/day intranasal, End of Week 8
[9] = 0.5 mg/day intranasal, End of Week 12
[10] = 1 mg/day intranasal, End of Week 4
[11] = 1 mg/day intranasal, End of Week 8
[12] = 1 mg/day intranasal, End of Week 12
[13] = 2 mg/day intranasal, End of Week 4
[14] = 2 mg/day intranasal, End of Week 8
[15] = 2 mg/day intranasal, End of Week 12
[16] = 0.5-2.0 mg daily intranasal over the 12 week period

Serum levels of estradiol on day 29 ([3]; in vivo): 0.014 to 0.103 ng/mL
SMILES: CCNC(=O)[C@@H]1CCCN1C(=O)[C@H](CCCN=C(N)N)NC(=O)[C@H](CC(C)C)NC(=O)[C@@H](Cc1c[nH]c2ccccc12)NC(=O)[C@H](Cc1ccc(O)cc1)NC(=O)[C@H](CO)NC(=O)[C@H](Cc1c[nH]c2ccccc12)NC(=O)[C@H](Cc1cnc[nH]1)NC(=O)[C@@H]1CCC(=O)N1 [deslorelin, (pyro)Pro-His-Trp-Ser-Tyr-DTrp-Leu-Arg-Pro-ethylamide]
Uterine Size, Mean Difference (end of week 12 minus baseline uterine volume) ([1]; 0.5 mg/day intranasal): −109.6 cm^3 | Uterine Size, Mean Difference (end of week 12 minus baseline uterine volume) ([1]; 1 mg/day intranasal): −63.6 cm^3 | Uterine Size, Mean Difference (end of week 12 minus baseline uterine volume) ([1]; 2 mg/day intranasal): −246.5 cm^3 | uterine volume (summary in words) ([1]; 0.5, 1.0, 2.0 mg daily intranasal, 12 weeks, said to correlate directly with dose): reduction in uterine volume | Bleeding Score ([2]; 0.5 mg/day intranasal, Baseline Score): 10.9 | Bleeding Score ([2]; 0.5 mg/day intranasal, Weeks 1-4): 6.6 | Bleeding Score ([2]; 0.5 mg/day intranasal, Weeks 5-8): 3.5 | Bleeding Score ([2]; 0.5 mg/day intranasal, Weeks 9-12): 2.6 | Bleeding Score ([2]; 1 mg/day intranasal, Baseline Score): 10.8 | Bleeding Score ([2]; 1 mg/day intranasal, Weeks 1-4): 7.8 | Bleeding Score ([2]; 1 mg/day intranasal, Weeks 5-8): 0.4 | Bleeding Score ([2]; 1 mg/day intranasal, Weeks 9-12): 1.7 | Bleeding Score ([2]; 2 mg/day intranasal, Baseline Score): 14.1 | Bleeding Score ([2]; 2 mg/day intranasal, Weeks 1-4): 6.6 | Bleeding Score ([2]; 2 mg/day intranasal, Weeks 5-8): 1.2 | Bleeding Score ([2]; 2 mg/day intranasal, Weeks 9-12): 0.6 | effectiveness (reduction of bleeding and uterine size), in words ([2]; all tested doses (0.5, 1.0, 2.0 mg)): partially or completely effective | bleeding score (summary in words) ([2]; end of the three month study): marked improvement | Hormone Levels: Progesterone ([3]; 0.5 mg/mL Deslorelin nasal preparation with estradiol and testosterone, Study Day 1, 0 min): 100 ng/dL and 90 ng/dL and 110 ng/dL | Hormone Levels: Progesterone ([3]; 0.5 mg/mL Deslorelin nasal preparation with estradiol and testosterone, Study Day 8): 90 ng/dL and 50 ng/dL and 110 ng/dL | Hormone Levels: Progesterone ([3]; 0.5 mg/mL Deslorelin nasal preparation with estradiol and testosterone, Study Day 15): 100 ng/dL and 40 ng/dL | Hormone Levels: Progesterone ([3]; 0.5 mg/mL Deslorelin nasal preparation with estradiol and testosterone, Study Day 22): 40 ng/dL (2×) and 50 ng/dL | Hormone Levels: Progesterone ([3]; 0.5 mg/mL Deslorelin nasal preparation with estradiol and testosterone, Study Day 29, 0 min): 100 ng/dL and 60 ng/dL and 70 ng/dL | Hormone Levels: Progesterone ([3]; 1.0 mg/mL Deslorelin nasal preparation with estradiol and testosterone, Study Day 8): 50 ng/dL (2×) and 80 ng/dL | Hormone Levels: Progesterone ([3]; 1.0 mg/mL Deslorelin nasal preparation with estradiol and testosterone, Study Day 15): 50 ng/dL and 30 ng/dL and 70 ng/dL | Hormone Levels: Progesterone ([3]; 1.0 mg/mL Deslorelin nasal preparation with estradiol and testosterone, Study Day 22): 50 ng/dL (2×) and 60 ng/dL | Hormone Levels: Progesterone ([3]; 1.0 mg/mL Deslorelin nasal preparation with estradiol and testosterone, Study Day 29, 0 min): 60 ng/dL and 40 ng/dL and 100 ng/dL | Hormone Levels: Progesterone ([3]; 2.0 mg/mL Deslorelin nasal preparation with estradiol and testosterone, Study Day 1, 0 min): 80 ng/dL and 30 ng/dL and 90 ng/dL | Hormone Levels: Progesterone ([3]; 2.0 mg/mL Deslorelin nasal preparation with estradiol and testosterone, Study Day 8): 50 ng/dL (2×) and 20 ng/dL | Progesterone levels during the treatment interval ([3]; all three deslorelin doses, generally, indicating that women were anovulatory): less than 80 ng/dL | Hormone Levels: Estradiol [4, 6]: 173 pg/mL | Hormone Levels: Progesterone [4, 6]: 641 ng/dL | Hormone Levels: Testosterone [4, 6]: 24 ng/dL | Hormone Levels: Estradiol [4, 7]: 47 pg/mL | Hormone Levels: Progesterone [4, 7]: 40 ng/dL | Hormone Levels: Testosterone [4, 7]: 19 ng/dL | Hormone Levels: Estradiol [4, 8]: 79 pg/mL | Hormone Levels: Progesterone [4, 8]: 30 ng/dL | Hormone Levels: Testosterone [4, 8]: 22 ng/dL | Hormone Levels: Estradiol [4, 9]: 66 pg/mL | Hormone Levels: Progesterone [4, 9]: 37 ng/dL | Hormone Levels: Testosterone [4, 9]: 23 ng/dL | Hormone Levels: Estradiol ([4]; 1 mg/day intranasal, Baseline): 123 pg/mL | Hormone Levels: Progesterone ([4]; 1 mg/day intranasal, Baseline): 480 ng/dL | Hormone Levels: Testosterone ([4]; 1 mg/day intranasal, Baseline): 26 ng/dL | Hormone Levels: Estradiol [4, 10]: 51 pg/mL | Hormone Levels: Progesterone [4, 10]: 12 ng/dL | Hormone Levels: Testosterone [4, 10]: 22 ng/dL | Hormone Levels: Estradiol [4, 11]: 95 pg/mL | Hormone Levels: Progesterone [4, 11]: 25 ng/dL | Hormone Levels: Testosterone [4, 11]: 20 ng/dL | Hormone Levels: Estradiol [4, 12]: 30 pg/mL | Hormone Levels: Progesterone [4, 12]: 10 ng/dL | Hormone Levels: Testosterone [4, 12]: 16 ng/dL | Hormone Levels: Estradiol ([4]; 2 mg/day intranasal, Baseline): 184 pg/mL | Hormone Levels: Progesterone ([4]; 2 mg/day intranasal, Baseline): 337 ng/dL | Hormone Levels: Testosterone ([4]; 2 mg/day intranasal, Baseline): 34 ng/dL | Hormone Levels: Estradiol [4, 13]: 14 pg/mL | Hormone Levels: Progesterone [4, 13]: 12 ng/dL | Hormone Levels: Testosterone [4, 13]: 16 ng/dL | Hormone Levels: Estradiol [4, 14]: 31 pg/mL | Hormone Levels: Progesterone [4, 14]: 14 ng/dL | Hormone Levels: Testosterone [4, 14]: 20 ng/dL | Hormone Levels: Estradiol [4, 15]: 30 pg/mL | Hormone Levels: Progesterone [4, 15]: 13 ng/dL | Hormone Levels: Testosterone [4, 15]: 20 ng/dL | reduction in serum estradiol levels (summary in words) [4, 16]: progressive and dose dependent | serum progesterone levels (summary in words) [4, 16]: progressive suppression with higher dose and longer time

SMILES: OC[C@H]1O[C@@H]2O[C@H]3[C@H](O)[C@@H](O)[C@@H](O[C@H]4[C@H](O)[C@@H](O)[C@@H](O[C@H]5[C@H](O)[C@@H](O)[C@@H](O[C@H]6[C@H](O)[C@@H](O)[C@@H](O[C@H]7[C@H](O)[C@@H](O)[C@@H](O[C@H]8[C@H](O)[C@@H](O)[C@@H](O[C@H]9[C@H](O)[C@@H](O)[C@@H](O[C@H]%10[C@H](O)[C@@H](O)[C@@H](O[C@H]1[C@H](O)[C@H]2O)O[C@@H]%10CO)O[C@@H]9CO)O[C@@H]8CO)O[C@@H]7CO)O[C@@H]6CO)O[C@@H]5CO)O[C@@H]4CO)O[C@@H]3CO [δ-cyclodextrin]
water solubility (at 25° C., g/100 mL) [5]: 8.19 g/100 mL

— US6960337B2, “Methods and compositions for treating benign gynecological disorders” (Balance Pharmaceuticals, Inc., priority 2002, dated 2005)
